Laboratory results taken from paper PMC4013053, “Identification of Selective Small Molecule Inhibitors of the Nucleotide-Binding Oligomerization Domain 1 (NOD1) Signaling Pathway” (PLoS ONE, 2014).
Converted amounts (≈) assume the structure as drawn. Like-named read-outs stand apart in the source and are kept apart here. Blank lines part the entries; values can stand above or below the compound they belong to.

Experiments:
NOD2 = system: NOD2; parameters: method as in PMID 22549783; details: read-out: NOD2 IC50 (nucleotide binding); cited from earlier work
NOD1 [1] = system: NOD1; parameters: method as in PMID 22062585; details: read-out: NOD1 IC50 (nucleotide binding); cited from earlier work
NOD1 [2] = target: T1, NOD1 (Homo sapiens, UniProt Q9Y239); experiment: iE-DAP-stimulated IL-8 release in 293/hNOD1 cells; type: cell-based
T1 sequence (Q9Y239 1-953): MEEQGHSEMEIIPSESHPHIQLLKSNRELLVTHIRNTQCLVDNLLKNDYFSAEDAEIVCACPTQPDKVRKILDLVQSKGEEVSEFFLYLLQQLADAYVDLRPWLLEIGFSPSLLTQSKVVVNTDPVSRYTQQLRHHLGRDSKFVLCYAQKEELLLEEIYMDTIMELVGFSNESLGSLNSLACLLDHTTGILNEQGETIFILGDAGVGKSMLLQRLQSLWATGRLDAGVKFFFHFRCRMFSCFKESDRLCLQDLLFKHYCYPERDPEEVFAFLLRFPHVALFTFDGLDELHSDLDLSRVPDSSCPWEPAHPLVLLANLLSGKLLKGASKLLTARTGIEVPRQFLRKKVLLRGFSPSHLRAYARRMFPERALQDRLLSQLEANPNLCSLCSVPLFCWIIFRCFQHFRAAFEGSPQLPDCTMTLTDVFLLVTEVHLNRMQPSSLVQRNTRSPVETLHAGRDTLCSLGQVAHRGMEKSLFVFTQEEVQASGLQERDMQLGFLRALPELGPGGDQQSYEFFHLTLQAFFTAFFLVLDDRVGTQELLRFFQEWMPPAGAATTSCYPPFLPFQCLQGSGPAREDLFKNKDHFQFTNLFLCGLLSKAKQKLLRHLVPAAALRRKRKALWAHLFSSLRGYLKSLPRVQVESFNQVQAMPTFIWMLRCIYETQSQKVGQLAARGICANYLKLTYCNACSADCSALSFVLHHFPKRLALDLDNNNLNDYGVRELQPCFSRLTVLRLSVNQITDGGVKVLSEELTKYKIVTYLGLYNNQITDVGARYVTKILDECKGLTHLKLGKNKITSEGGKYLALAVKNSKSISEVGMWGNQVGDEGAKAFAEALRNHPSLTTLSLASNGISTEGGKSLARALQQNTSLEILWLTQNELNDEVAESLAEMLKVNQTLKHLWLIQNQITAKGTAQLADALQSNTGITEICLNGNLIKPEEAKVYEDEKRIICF
Procedure: Inhibitors of iE-DAP-stimulated IL-8 release were screened in a 1536-well assay in which 293/hNOD1 cells (5000 cells/well) in DMEM high glucose medium supplemented with 0.1% FBS and 10 µg/mL Blasticidin S were stimulated with 60 ng/mL (200 nM) iE-DAP (EC80) in the presence of 10 µM compounds. After 24 hours the amount of IL-8 secreted into the medium was determined by homogeneous time resolved fluorescence (HTRF) assay by the direct addition of a 1∶1 mix of europium cryptate and XL665-conjugated anti-IL-8 antibodies according to the manufacturer’s instructions (Cisbio). Fluorescence was measured after 2 hours in a ViewLux imager using UMB-AMC excitation and 618–671 nm emission filters (Perkin Elmer). […] Inhibition of TNFR1-induced IL-8 release was performed with 293/hNOD1 cells stimulated with 20 ng/mL (∼EC95) rhTNFα.
A high-throughput screen of about 2.2 million compounds was conducted for inhibitors of the NOD1 signaling pathway using suppression of iE-DAP stimulated IL-8 secretion in HEK293 cells stably expressing human NOD1 (293/hNOD1 cells). […] These assays were chosen to assess the selectivity of hits because the signaling pathways activated by these receptors converge at the level of the TAB/TAK1/IKK complex.

CLND solubility = type: physicochemical; details: phosphate buffered saline with 5% DMSO, pH 7.4, aqueous buffer, kinetic from dmso stock; 5% DMSO pH7.4 phosphate buffered saline
Description: (§1) Physicochemical analyses of compounds were completed at GSK.

human serum albumin = human serum albumin (Homo sapiens, UniProt P02768); experiment: Human serum albumin (HSA) binding; type: in vitro ADME
Sequence of human serum albumin (P02768 25-609): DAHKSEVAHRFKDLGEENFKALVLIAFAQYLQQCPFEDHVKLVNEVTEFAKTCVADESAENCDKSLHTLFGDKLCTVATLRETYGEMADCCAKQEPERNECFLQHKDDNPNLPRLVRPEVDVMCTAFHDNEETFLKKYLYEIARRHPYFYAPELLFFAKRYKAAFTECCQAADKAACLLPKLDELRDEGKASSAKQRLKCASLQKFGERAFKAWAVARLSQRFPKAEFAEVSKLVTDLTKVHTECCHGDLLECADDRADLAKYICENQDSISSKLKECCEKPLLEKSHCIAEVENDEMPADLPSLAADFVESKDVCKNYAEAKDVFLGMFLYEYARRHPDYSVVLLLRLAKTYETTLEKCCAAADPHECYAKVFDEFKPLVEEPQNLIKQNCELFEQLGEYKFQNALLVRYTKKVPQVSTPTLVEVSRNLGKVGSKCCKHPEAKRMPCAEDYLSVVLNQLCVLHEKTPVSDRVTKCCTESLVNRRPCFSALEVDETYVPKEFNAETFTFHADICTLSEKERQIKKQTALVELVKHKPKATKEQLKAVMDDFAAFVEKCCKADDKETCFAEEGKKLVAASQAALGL
Description: as §1

[3] = Permeability across an artificial membrane; type: in vitro ADME; details: PAMPA
Description: as §1

[4] = Chromatographic hydrophobicity index (Chrom log D); type: physicochemical; details: pH 7.4
Description: as §1

α1-acid glycoprotein = α1-acid glycoprotein (AGP) binding; type: in vitro ADME
Description: as §1

[5] = Immobilized artificial membrane (IAM) binding; type: physicochemical
Description: as §1

[6] = system: NOD1 induced NF-κB and MAPK pathways; experiment: Western blotting of IκBα and phospho-MAPKs in Tri-DAP stimulated 293/hNOD1 cells; type: cell-based, human; details: 50 µg/mL Tri-DAP 1 hour, immunoblotting
Procedure: Confluent cultures of 293/hNOD1 and -hNOD2 cells seeded in 24-well plates were serum-starved over-night, pre-incubated for 1 hour with compound and then stimulated for 1 hour with either 50 µg/mL Tri-DAP or 25 µg/mL MDP, respectively. Whole cell lysates were prepared in 1X cell lysis buffer (Cell Signaling Technology) supplemented with additional protease, aminopeptidase and phosphatase inhibitors (protease inhibitor cocktail set III, EMD Biosciences; phosphatase inhibitor sets II and III, Sigma-Aldrich). The levels of phosphorylated and total p38, JNK, ERK1/2 and total IκBα were determined by immunoblotting of ∼20 µg protein per sample using the following primary antibodies: phospho-p38 MAPK (12F8, #4631), p38 MAPK (#9212), phospho-JNK (#9251), JNK (#9252) and IκBα (#9242) all purchased from Cell Signaling Technology, and phospho-ERK1/2 (sc-7383) and ERK1/2 (sc-94) antibodies from Santa Cruz Biotechnology.

NOD1 [7] = details: HEK293T cells, read-out: IC50 NF-κB reporter, cited from earlier work
[8] = iE-DAP-stimulated IL-8 production in 293/hNOD1 cells, SAR figures, read-out: NOD1 XC50
[9] = HEK293 stably expressing human NOD1, IL-8 released into medium, read-out: IC50 293/hNOD1 iE-DAP

Compound: Nc1ncnc2c1ncn2[C@@H]1O[C@H](COP(=O)(O)OP(=O)(O)OP(=O)(O)O)[C@@H](O)[C@H]1O [ATP]
IC50 (NOD2): ~0.06 µM
IC50 (NOD1 [1]): ~0.015 µM

Compound: Cc1nc2ccccc2c(=O)n1-c1ccc(F)c(NS(=O)(=O)c2ccc(F)cc2F)c1 [Compound 10]
IC50 (NOD1 [2]; [8]): 2.2 ± 3.3 µM

Compound: Cc1ccc(S(=O)(=O)Nc2cc(-n3c(C)nc4ccccc4c3=O)ccc2F)cc1C [Compound 11]
IC50 (NOD1 [2]; [8]): 1.1 ± 0.7 µM

Compound: Cc1ccc(S(=O)(=O)Nc2cccc(C(=O)Nc3nc4ccc([N+](=O)[O-])cc4s3)c2)cc1 [Compound 15]
IC50 (NOD1 [2]; [9]): 0.2 µM
IC50 (NOD1 [2]; [8]): 0.19 ± 0.03 µM

Compound: Cc1ccc(S(=O)(=O)Nc2cccc(C(=O)Nc3ccc4nc(C)sc4c3)c2)c(F)c1 [Compound 17]
IC50 (NOD1 [2]; [8]): 0.76 ± 0.1 µM

Compound: CC(=O)Nc1ccc2nc(NC(=O)c3cccc(NS(=O)(=O)c4ccc(C)cc4)c3)sc2c1 [Compound 18]
IC50 (NOD1 [2]; [8]): 1.4 ± 0.3 µM

Compound: N#Cc1ccc(-c2csc(NC(=O)c3cccc(NS(=O)(=O)c4ccc(Cl)cc4)c3)n2)cc1 [Compound 19]
IC50 (NOD1 [2]; [8]): 2 ± 0.5 µM

Compound: COc1ccc(S(=O)(=O)Nc2cccc(C(=O)Nc3ccc4nc(C)sc4c3)c2)cc1 [Compound 20]
IC50 (NOD1 [2]; [8]): 2.3 ± 0.8 µM

Compound: O=C(Nc1ccc2c(c1)OCO2)c1cccc(NS(=O)(=O)c2ccc(Cl)cc2)c1 [Compound 21]
IC50 (NOD1 [2]; [8]): 3.7 ± 1.4 µM
solubility (CLND solubility): 46 µM (≈ 19.8 µg/mL)
HSA binding (human serum albumin): 98.01%
Papp [3]: 23 ×10⁻⁶ cm/s
chromatographic logD [4]: 5.17
AGP binding (α1-acid glycoprotein): 87.41%
IAM binding [5]: 2.40 log K

Compound: Cc1nc2ccccc2c(=O)n1-c1ccc(Cl)c(NS(=O)(=O)c2ccc3c(c2)OCCO3)c1 [Compound 23]
IC50 (NOD1 [2]; [8]): 0.1 ± 0.04 µM

Compound: Cc1nc2cc(Cl)ccc2c(=O)n1-c1ccc(Cl)c(NS(=O)(=O)c2ccccc2F)c1 [Compound 27, N-(2-chloro-5-(7-chloro-2-methyl-4-oxoquinazolin-3(4H)-yl)phenyl)-2-fluorobenzenesulfonamide]
IC50 (NOD1 [2]; [8]): 2.5 ± 1.2 µM

Compound: Cc1nc(C)n(-c2ccc(Cl)c(NS(=O)(=O)c3ccccc3F)c2)c(=O)c1C [Compound 28, N-(2-chloro-5-(2,4,5-trimethyl-6-oxopyrimidin-1(6H)-yl)phenyl)-2-fluorobenzenesulfonamide]
IC50 (NOD1 [2]; [8]): 3.5 ± 0.5 µM

Compound: Cc1ccc(S(=O)(=O)n2c(N)nc3ccccc32)cc1 [ML130]
IC50 (NOD1 [7]): 0.56 µM

Compound: C/C=C/Cn1c(SCCCc2ccccc2)nc2c1c(=O)[nH]c(=O)n2C [ML146]
IC50 (NOD1 [7]; ref Magnuson et al, 2010): 1.5 µM

More lines, main results first:

IC50 (NOD1 [2]; [8]): 0.4 ± 0.08 µM
Compound: Cn1c(=O)[nH]c(=O)c2c1nc(SCCc1ccccc1)n2Cc1ccccc1 [Compound 1]

IC50 (NOD1 [2]; [8]): 2.5 ± 1.3 µM
Compound: Cn1c(=O)[nH]c(=O)c2c1nc(CCCSc1ccccc1)n2Cc1ccccc1 [Compound 2]

IC50 (NOD1 [2]; [8]): 4.7 ± 1.4 µM
Compound: CCCCCCSc1nc2c(c(=O)[nH]c(=O)n2C)n1Cc1ccccc1 [Compound 3]

IC50 (NOD1 [2]; [8]): 8.7 ± 1.5 µM
Compound: Cn1c(=O)[nH]c(=O)c2c1nc(SCCCc1ccccc1)n2Cc1ccccc1 [Compound 4]

IC50 (NOD1 [2]; [8]): 8.9 ± 1.6 µM
Compound: Cc1cccc(CSc2nc3c(c(=O)[nH]c(=O)n3C)n2Cc2ccccc2)c1 [Compound 5]

IC50 (NOD1 [2]; [8]): 9.6 ± 2.8 µM
Compound: C/C=C/Cn1c(SCCc2ccccc2)nc2c1c(=O)[nH]c(=O)n2C [Compound 6]

IC50 (NOD1 [2]; [8]): 37.3 ± 18.1 µM
Compound: Cn1c(=O)[nH]c(=O)c2c1nc(SCc1ccccc1)n2Cc1ccccc1 [Compound 7]

IC50 (NOD1 [2]; [9]): 0.7 µM
solubility (CLND solubility): 391 µM (≈ 167 µg/mL)
HSA binding (human serum albumin): 96.05%
Papp [3]: 35 ×10⁻⁶ cm/s
chromatographic logD [4]: 3.24
AGP binding (α1-acid glycoprotein): 80.38%
IAM binding [5]: 1.42 log K
Compound: Cc1nc2ccccc2c(=O)n1-c1ccc(F)c(NS(=O)(=O)c2ccccc2F)c1 [Compound 8]

IC50 (NOD1 [2]; [9]): 0.7 µM
Compound: Cc1nc2ccccc2c(=O)n1-c1ccc(F)c(NS(=O)(=O)c2ccc(Cl)s2)c1 [Compound 9]
effect on Tri-DAP induced p-JNK, p-p38 and IκBα responses [6]: reduced both phospho-JNK and the weaker phospho-p38 levels while levels of IκBα were increased

IC50 (NOD1 [2]; [8]): 1.2 ± 0.1 µM
Compound: Cc1nc2ccccc2c(=O)n1-c1ccc(F)c(NS(=O)(=O)c2cc(Cl)ccc2Cl)c1 [Compound 12]

IC50 (NOD1 [2]; [8]): 2.3 ± 1.7 µM
solubility (CLND solubility): 423 µM (≈ 176 µg/mL)
HSA binding (human serum albumin): 96.08%
Papp [3]: 26 ×10⁻⁶ cm/s
chromatographic logD [4]: 2.87
AGP binding (α1-acid glycoprotein): 81.23%
IAM binding [5]: 1.36 log K
Compound: Cc1nc2ccccc2c(=O)n1-c1ccc(F)c(NS(=O)(=O)c2cccs2)c1 [Compound 13]

IC50 (NOD1 [2]; [9]): 15.1 µM
Compound: CCc1ccc(S(=O)(=O)Nc2cccc(-n3c(C)nc4ccccc4c3=O)c2)s1 [Compound 14]

IC50 (NOD1 [2]; [8]): 0.2 ± 0.2 µM
Compound: Cc1ccc(S(=O)(=O)Nc2cc(-n3c(C)nc4ccccc4c3=O)ccc2Cl)cc1 [Compound 24]

IC50 (NOD1 [2]; [8]): 0.5 ± 0.1 µM
Compound: COc1ccc(Cl)cc1S(=O)(=O)Nc1cc(-n2c(C)nc3ccccc3c2=O)ccc1Cl [Compound 25]

IC50 (NOD1 [2]; [8]): 0.026 µM
Compound: Cc1nc2ccc(Cl)cc2c(=O)n1-c1ccc(Cl)c(NS(=O)(=O)c2ccccc2F)c1 [Compound 26, N-(2-chloro-5-(6-chloro-2-methyl-4-oxoquinazolin-3(4H)-yl)phenyl)-2-fluorobenzenesulfonamide]

IC50 (NOD1 [2]; [8]): 25 ± 17.5 µM
Compound: Cc1cc(=O)n(-c2ccc(Cl)c(NS(=O)(=O)c3ccccc3F)c2)c(C)n1 [Compound 29, N-(2-chloro-5-(2,4-dimethyl-6-oxopyrimidin-1(6H)-yl)phenyl)-2-fluorobenzenesulfonamide]
